{
  "source": "patent EP0037667A2",
  "about": "“Immobilized lactase, its preparation and use” (priority 1980, dated 1981)",
  "key": {"[1]": {"molecular_target": "T1, immobilized lactase: Aspergillus oryzae lactase covalently attached through glutaraldehyde on macroporous phenol-formaldehyde based anion-exchange resin (Aspergillus oryzae, UniProt Q2UCU3)", "T1 construct": "obtained from a strain belonging to Aspergillus oryzae as extracellular enzyme; host or cells: Aspergillus oryzae strain (natural producer, secreted)", "T1 sequence (Q2UCU3 19-1005)": "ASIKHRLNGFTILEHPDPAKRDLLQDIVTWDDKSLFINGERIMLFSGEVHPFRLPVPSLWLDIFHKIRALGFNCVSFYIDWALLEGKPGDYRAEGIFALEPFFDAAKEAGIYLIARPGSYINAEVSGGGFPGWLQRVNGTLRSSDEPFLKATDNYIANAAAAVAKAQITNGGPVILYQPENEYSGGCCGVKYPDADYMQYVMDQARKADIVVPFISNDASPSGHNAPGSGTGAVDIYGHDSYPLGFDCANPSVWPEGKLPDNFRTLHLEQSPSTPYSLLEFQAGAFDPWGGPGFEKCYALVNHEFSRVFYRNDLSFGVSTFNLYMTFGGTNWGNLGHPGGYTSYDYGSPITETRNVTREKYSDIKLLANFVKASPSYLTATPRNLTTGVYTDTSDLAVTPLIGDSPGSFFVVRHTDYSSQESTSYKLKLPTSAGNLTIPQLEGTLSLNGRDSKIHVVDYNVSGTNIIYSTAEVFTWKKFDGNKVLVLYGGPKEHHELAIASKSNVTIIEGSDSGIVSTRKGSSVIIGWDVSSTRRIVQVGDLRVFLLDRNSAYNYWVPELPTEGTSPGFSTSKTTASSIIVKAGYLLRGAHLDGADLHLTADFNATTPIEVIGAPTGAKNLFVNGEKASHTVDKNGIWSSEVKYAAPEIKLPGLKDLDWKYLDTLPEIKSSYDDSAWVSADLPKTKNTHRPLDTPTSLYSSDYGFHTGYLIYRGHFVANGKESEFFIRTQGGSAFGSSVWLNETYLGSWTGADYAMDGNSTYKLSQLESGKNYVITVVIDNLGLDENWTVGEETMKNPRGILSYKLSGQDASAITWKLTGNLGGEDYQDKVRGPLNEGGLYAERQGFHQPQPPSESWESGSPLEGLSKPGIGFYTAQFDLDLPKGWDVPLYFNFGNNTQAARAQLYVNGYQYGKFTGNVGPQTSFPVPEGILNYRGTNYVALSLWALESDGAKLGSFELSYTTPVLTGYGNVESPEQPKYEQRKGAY", "experiment": "Km and Ki of the immobilized lactase, general properties", "format": "biochemical", "settings": "pH 6.65, 30°C, substrate; lactose; immobilized enzyme; read-out: Inhibition constant by galactose Ki", "procedure": "The enzymatical properties of the present immobilized lactase are given below.\nKm = 0.2 ± 0.1 mole/ℓ (both pH 4.5, 30°C, substrate; lactose, and pH 6.65, 30°C, substrate; lactose)\nKi = (8 ± 5) x […] mole/ℓ (pH 4.5, 30°C, substrate; lactose) and Ki = (3 ± 2) x 10^-2 mole/ℓ (pH 6.65, 30°C, substrate; lactose).\nBoth values of Km and Ki for the immobilized enzyme tend to increase with increase in the concentration of the glutaraldehyde solution used for the treatment, and moreover, in the measurement thereof, it is considerably difficult to obtain the results with good reproducibility. Therefore, the above value given for Km and Ki should be understood taking this respect into consideration.\""}, "[2]": {"molecular_target": "T2, lactase originated from Aspergillus oryzae (extracellular enzyme, unimmobilized) (Aspergillus oryzae, UniProt Q2UCU3)", "T2 construct": "obtained from a strain belonging to Aspergillus oryzae as extracellular enzyme; host or cells: Aspergillus oryzae strain (natural producer, secreted)", "T2 sequence (Q2UCU3 19-1005)": "as above", "experiment": "Km and Ki of free (unimmobilized) Aspergillus oryzae lactase", "format": "biochemical", "settings": "for Ki: substrate, lactose, free enzyme, read-out: Inhibition constant Ki by galactose", "procedure": "The lactase used in the present invention is obtained from a strain belonging to Aspergillus oryzae as extracellular enzyme, and has the following characteristics:\nKm = 0.10 ± 0.05 mole/ℓ (pH 4.5, 30°C, substrate; lactose), and Km = 0.3 ± 0.15 mole/ℓ (pH 6.65, 30°C, substrate; lactose).\nKi = (6 ± 3) x 10^-3 mole/ℓ (pH 4.5, 30°C, substrate; lactose), and Ki = (4 ± 3) x 10^-3 mole/ℓ (pH 6.65, 30°C, substrate; lactose).\nIn the present specification, 1 ILU is defined as the amount of lactase which produces […] per minute of glucose at pH 4.5 at 30°C when a 13.3 w/v % of lactose solution is used as the substrate. The quantity of glucose thus prepared is defined by using glucose oxidase-peroxidase- dye system. When the measurement of the activity (unit) is carried out at a different pH or temperature, the pH or the temperature will specifically be given in each case."}, "[3]": {"molecular_target": "lactase derived from Escherichia coli (β-galactosidase; enzyme number 3. 2. 1. 23) (Escherichia coli, UniProt P00722)", "sequence (P00722 2-1024)": "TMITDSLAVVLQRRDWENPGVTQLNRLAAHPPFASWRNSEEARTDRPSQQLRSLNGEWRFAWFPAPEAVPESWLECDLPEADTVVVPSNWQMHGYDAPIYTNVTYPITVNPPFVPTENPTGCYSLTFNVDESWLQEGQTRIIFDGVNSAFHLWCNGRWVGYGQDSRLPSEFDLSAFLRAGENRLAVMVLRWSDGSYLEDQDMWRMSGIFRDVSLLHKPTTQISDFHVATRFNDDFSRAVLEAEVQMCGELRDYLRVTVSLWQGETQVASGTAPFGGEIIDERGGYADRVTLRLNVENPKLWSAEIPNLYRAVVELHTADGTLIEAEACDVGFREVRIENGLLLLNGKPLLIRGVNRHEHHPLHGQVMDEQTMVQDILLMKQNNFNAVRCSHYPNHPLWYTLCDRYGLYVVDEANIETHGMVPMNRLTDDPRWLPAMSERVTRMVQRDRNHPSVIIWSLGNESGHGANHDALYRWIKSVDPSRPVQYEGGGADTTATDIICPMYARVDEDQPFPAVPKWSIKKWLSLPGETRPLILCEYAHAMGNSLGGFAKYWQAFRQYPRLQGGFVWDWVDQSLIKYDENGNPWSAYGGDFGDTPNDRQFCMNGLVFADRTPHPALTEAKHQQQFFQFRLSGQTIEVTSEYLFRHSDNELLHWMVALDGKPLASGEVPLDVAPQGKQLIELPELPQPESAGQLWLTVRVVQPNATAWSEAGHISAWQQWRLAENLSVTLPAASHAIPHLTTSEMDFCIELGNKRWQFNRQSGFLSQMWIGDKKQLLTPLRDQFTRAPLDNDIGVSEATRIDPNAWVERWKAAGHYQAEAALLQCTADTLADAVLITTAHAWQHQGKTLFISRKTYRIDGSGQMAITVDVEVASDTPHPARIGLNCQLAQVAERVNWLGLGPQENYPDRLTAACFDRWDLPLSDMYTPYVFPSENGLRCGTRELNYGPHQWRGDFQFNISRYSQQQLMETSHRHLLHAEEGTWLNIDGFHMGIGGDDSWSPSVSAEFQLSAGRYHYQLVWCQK", "settings": "E. coli lactase, cited from earlier work"}},
  "note": "Read-outs that look alike come from different tables or passages of the source.",
  "data": [
    {"smiles": "OC[C@H]1OC(O)[C@H](O)[C@@H](O)[C@H]1O", "note": "(stereo partly drawn) [galactose]", "values": [
      {"measurement": "Ki", "setting": "[1]", "result": 30, "unit": "mM"},
      {"measurement": "Ki", "setting": "[2]; pH 4.5, 30°C", "result": 6, "unit": "mM"},
      {"measurement": "Ki", "setting": "[2]; pH 6.65, 30°C", "result": 4, "unit": "mM"}
    ]},
    {"smiles": "O=[N+]([O-])c1ccccc1O[C@@H]1O[C@H](CO)[C@H](O)[C@H](O)[C@H]1O", "note": "[ONPG, ortho-nitrophenyl-β-D-galactopyranoside, reference compound]", "values": [
      {"measurement": "Km", "setting": "[3]; read-out: Michaelis constant Km (substrate; ONPG)", "result": 0.95, "unit": "mM"}
    ]},
    {"smiles": "OC[C@H]1O[C@@H](O[C@H]2[C@H](O)[C@@H](O)C(O)O[C@@H]2CO)[C@H](O)[C@@H](O)[C@H]1O", "note": "(stereo partly drawn) [lactose]", "values": [
      {"measurement": "Km", "setting": "[3]; read-out: Michaelis constant Km (substrate; lactose)", "result": 7.5, "unit": "mM"},
      {"measurement": "Km", "setting": "[2]; pH 4.5, 30°C, dry lactase powder used in Example 3 (Shinnihon Kagaku Kogyo, 80 ILU/mg)", "result": 100, "unit": "mM"}
    ]}
  ]
}
